{"source": "PubChem BioAssay (NCI)", "experiment_in_all_cases": "NCI tumour cell line growth inhibition, 48 h", "key": {"A549 NSCLC": {"test_system": "A549 NSCLC"}, "ACHN renal": {"test_system": "ACHN renal"}, "CAKI-1 renal": {"test_system": "CAKI-1 renal"}, "COLO 205 colon": {"test_system": "COLO 205 colon"}, "HCT-116 colon": {"test_system": "HCT-116 colon"}, "HL-60(TB) leukemia": {"test_system": "HL-60(TB) leukemia"}, "HOP-62 NSCLC": {"test_system": "HOP-62 NSCLC"}, "K-562 leukemia": {"test_system": "K-562 leukemia"}, "NCI-H226 lung": {"test_system": "NCI-H226 lung"}, "NCI-H23 lung": {"test_system": "NCI-H23 lung"}, "OVCAR-4 ovarian": {"test_system": "OVCAR-4 ovarian"}, "OVCAR-5 ovarian": {"test_system": "OVCAR-5 ovarian"}, "OVCAR-8 ovarian": {"test_system": "OVCAR-8 ovarian"}, "RPMI-8226 leukemia": {"test_system": "RPMI-8226 leukemia"}, "SNB-19 CNS": {"test_system": "SNB-19 CNS"}, "SNB-75 CNS": {"test_system": "SNB-75 CNS"}, "SR leukemia": {"test_system": "SR leukemia"}, "U251 CNS": {"test_system": "U251 CNS"}, "UACC-62 melanoma": {"test_system": "UACC-62 melanoma"}}, "note": "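In this assay, cells in 96-well plates receive the compound at five concentrations for 48 hours. Endpoints are linearly interpolated between the surrounding concentrations. TGI is the concentration that stops growth completely.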", "data": [{"smiles": "COC(=O)C1=C(OC(=O)/C=C/c2ccc(Cl)cc2)C(C(=O)OC)[C@]2(O)[C@@H](C(=O)OC)[C@H]1C[C@@H](c1ccccc1)[C@@H]2C(=O)OC", "note": "(stereo partly specified)", "values": [{"measurement": "TGI", "setting": "A549 NSCLC", "result": "> 100", "unit": "µM"}, {"measurement": "TGI", "setting": "ACHN renal", "result": "> 100", "unit": "µM"}, {"measurement": "TGI", "setting": "CAKI-1 renal", "result": "> 100", "unit": "µM"}, {"measurement": "TGI", "setting": "COLO 205 colon", "result": "> 22.2", "unit": "µM"}, {"measurement": "TGI", "setting": "HCT-116 colon", "result": "> 29.4", "unit": "µM"}, {"measurement": "TGI", "setting": "HL-60(TB) leukemia", "result": 23.7, "unit": "µM"}, {"measurement": "TGI", "setting": "HOP-62 NSCLC", "result": "> 100", "unit": "µM"}, {"measurement": "TGI", "setting": "K-562 leukemia", "result": "> 100", "unit": "µM"}, {"measurement": "TGI", "setting": "NCI-H226 lung", "result": 18.6, "unit": "µM"}, {"measurement": "TGI", "setting": "NCI-H23 lung", "result": "> 25.1", "unit": "µM"}, {"measurement": "TGI", "setting": "OVCAR-4 ovarian", "result": "> 100", "unit": "µM"}, {"measurement": "TGI", "setting": "OVCAR-5 ovarian", "result": "> 100", "unit": "µM"}, {"measurement": "TGI", "setting": "OVCAR-8 ovarian", "result": "> 30.7", "unit": "µM"}, {"measurement": "TGI", "setting": "RPMI-8226 leukemia", "result": "> 100", "unit": "µM"}, {"measurement": "TGI", "setting": "SNB-19 CNS", "result": "> 95.9", "unit": "µM"}, {"measurement": "TGI", "setting": "SNB-75 CNS", "result": "> 100", "unit": "µM"}, {"measurement": "TGI", "setting": "SR leukemia", "result": "> 100", "unit": "µM"}, {"measurement": "TGI", "setting": "U251 CNS", "result": "> 100", "unit": "µM"}, {"measurement": "TGI", "setting": "UACC-62 melanoma", "result": "> 100", "unit": "µM"}]}, {"smiles": "CCN(CC)c1ccc2cc(C(=O)NCc3ccccc3)c(=N)oc2c1", "values": [{"measurement": "TGI", "setting": "A549 NSCLC", "result": "> 100", "unit": "µM"}, {"measurement": "TGI", "setting": "ACHN renal", "result": "> 100", "unit": "µM"}, {"measurement": "TGI", "setting": "CAKI-1 renal", "result": "> 100", "unit": "µM"}, {"measurement": "TGI", "setting": "COLO 205 colon", "result": "> 59.7", "unit": "µM"}, {"measurement": "TGI", "setting": "HCT-116 colon", "result": "> 100", "unit": "µM"}, {"measurement": "TGI", "setting": "HL-60(TB) leukemia", "result": "> 100", "unit": "µM"}, {"measurement": "TGI", "setting": "HOP-62 NSCLC", "result": "> 100", "unit": "µM"}, {"measurement": "TGI", "setting": "K-562 leukemia", "result": "> 26", "unit": "µM"}, {"measurement": "TGI", "setting": "NCI-H226 lung", "result": "> 100", "unit": "µM"}, {"measurement": "TGI", "setting": "NCI-H23 lung", "result": 97, "unit": "µM"}, {"measurement": "TGI", "setting": "OVCAR-4 ovarian", "result": "> 100", "unit": "µM"}, {"measurement": "TGI", "setting": "OVCAR-5 ovarian", "result": "> 100", "unit": "µM"}, {"measurement": "TGI", "setting": "OVCAR-8 ovarian", "result": "> 100", "unit": "µM"}, {"measurement": "TGI", "setting": "RPMI-8226 leukemia", "result": "> 59.7", "unit": "µM"}, {"measurement": "TGI", "setting": "SNB-19 CNS", "result": "> 100", "unit": "µM"}, {"measurement": "TGI", "setting": "SNB-75 CNS", "result": "> 100", "unit": "µM"}, {"measurement": "TGI", "setting": "SR leukemia", "result": "> 100", "unit": "µM"}, {"measurement": "TGI", "setting": "U251 CNS", "result": "> 100", "unit": "µM"}, {"measurement": "TGI", "setting": "UACC-62 melanoma", "result": "> 100", "unit": "µM"}]}, {"smiles": "CCN(CC)CCCNc1ccc([N+](=O)[O-])c2nc3ccc(OC)cc3c(N)c12", "values": [{"measurement": "TGI", "setting": "A549 NSCLC", "result": 3.61, "unit": "µM"}, {"measurement": "TGI", "setting": "ACHN renal", "result": "> 10", "unit": "µM"}, {"measurement": "TGI", "setting": "CAKI-1 renal", "result": "> 10", "unit": "µM"}, {"measurement": "TGI", "setting": "COLO 205 colon", "result": 2.67, "unit": "µM"}, {"measurement": "TGI", "setting": "HCT-116 colon", "result": 2.49, "unit": "µM"}, {"measurement": "TGI", "setting": "HL-60(TB) leukemia", "result": 4.03, "unit": "µM"}, {"measurement": "TGI", "setting": "HOP-62 NSCLC", "result": "> 10", "unit": "µM"}, {"measurement": "TGI", "setting": "K-562 leukemia", "result": 4.79, "unit": "µM"}, {"measurement": "TGI", "setting": "NCI-H226 lung", "result": "> 10", "unit": "µM"}, {"measurement": "TGI", "setting": "NCI-H23 lung", "result": 4.03, "unit": "µM"}, {"measurement": "TGI", "setting": "OVCAR-4 ovarian", "result": 4.41, "unit": "µM"}, {"measurement": "TGI", "setting": "OVCAR-5 ovarian", "result": "> 10", "unit": "µM"}, {"measurement": "TGI", "setting": "OVCAR-8 ovarian", "result": 5.6, "unit": "µM"}, {"measurement": "TGI", "setting": "RPMI-8226 leukemia", "result": 4.81, "unit": "µM"}, {"measurement": "TGI", "setting": "SNB-19 CNS", "result": "> 6.29", "unit": "µM"}, {"measurement": "TGI", "setting": "SNB-75 CNS", "result": 3.65, "unit": "µM"}, {"measurement": "TGI", "setting": "SR leukemia", "result": 4.05, "unit": "µM"}, {"measurement": "TGI", "setting": "U251 CNS", "result": "> 10", "unit": "µM"}, {"measurement": "TGI", "setting": "UACC-62 melanoma", "result": "> 10", "unit": "µM"}]}, {"smiles": "CC(=O)C1(C)CC(C#N)(C#N)C(C#N)=C1N", "note": "(stereo unspecified)", "values": [{"measurement": "TGI", "setting": "A549 NSCLC", "result": "> 100", "unit": "µM"}, {"measurement": "TGI", "setting": "ACHN renal", "result": "> 100", "unit": "µM"}, {"measurement": "TGI", "setting": "CAKI-1 renal", "result": "> 100", "unit": "µM"}, {"measurement": "TGI", "setting": "COLO 205 colon", "result": "> 100", "unit": "µM"}, {"measurement": "TGI", "setting": "HCT-116 colon", "result": "> 100", "unit": "µM"}, {"measurement": "TGI", "setting": "HL-60(TB) leukemia", "result": "> 100", "unit": "µM"}, {"measurement": "TGI", "setting": "HOP-62 NSCLC", "result": "> 100", "unit": "µM"}, {"measurement": "TGI", "setting": "K-562 leukemia", "result": "> 100", "unit": "µM"}, {"measurement": "TGI", "setting": "NCI-H226 lung", "result": "> 100", "unit": "µM"}, {"measurement": "TGI", "setting": "NCI-H23 lung", "result": "> 100", "unit": "µM"}, {"measurement": "TGI", "setting": "OVCAR-4 ovarian", "result": "> 100", "unit": "µM"}, {"measurement": "TGI", "setting": "OVCAR-5 ovarian", "result": "> 100", "unit": "µM"}, {"measurement": "TGI", "setting": "OVCAR-8 ovarian", "result": "> 100", "unit": "µM"}, {"measurement": "TGI", "setting": "RPMI-8226 leukemia", "result": "> 100", "unit": "µM"}, {"measurement": "TGI", "setting": "SNB-19 CNS", "result": "> 100", "unit": "µM"}, {"measurement": "TGI", "setting": "SNB-75 CNS", "result": "> 100", "unit": "µM"}, {"measurement": "TGI", "setting": "SR leukemia", "result": "> 100", "unit": "µM"}, {"measurement": "TGI", "setting": "U251 CNS", "result": "> 100", "unit": "µM"}, {"measurement": "TGI", "setting": "UACC-62 melanoma", "result": "> 100", "unit": "µM"}]}]}
